Data as given in patent US20140349970A1 (ABBVIE INC., priority 2009, published 2014).
Like-named read-outs stand apart in the source and are kept apart here.

Target: T1, Syk catalytic domain (aa 356-635 with a C-terminal His-tag) (Homo sapiens, UniProt P43405)
T1 construct: His-tag (C); made in house
Test: In vitro Syk kinase activity measured by trFRET, Syk catalytic domain
Format: biochemical
Procedure: In Vitro Syk Kinase Activity Measured by Time-Resolved Fluorescence Resonance Energy Transfer (trFRET)
0.14 nM purified Syk catalytic domain (aa 356-635 with a C-terminal His-tag purified in-house by immobilized metal ion affinity chromatography) was mixed with 0.2 μM peptide substrate (biotin-TYR1, Sequence: Biotin-(Ahx)-GAEEEIYAAFFA-COOH) at varying inhibitor concentrations in reaction buffer: 50 mM MOPSO pH 6.5, 10 mM MgCl2, 2 mM MnCl2, 2.5 mM DTT, 0.01% BSA, 0.1 mM Na3VO4 and 0.001 mM ATP. After about 60 min incubation at rt, the reaction was quenched by addition of EDTA (final concentration: 100 mM) and developed by addition of revelation reagents (final approximate concentrations: 30 mM HEPES pH 7.0, 0.06% BSA, 0.006% Tween-20, 0.24 M KF, 80 ng/mL PT66K (europium labeled anti-phosphotyrosine antibody cat #61T66KLB Cisbio, Bedford, Mass.) and 0.6 μg/mL SAXL (Phycolink streptavidin-allophycocyanin acceptor, cat #PJ255, Prozyme, San Leandro, Calif.). The developed reaction was incubated in the dark either at about 4° C. for about 14 h or for about 60 min at rt, then read via a time-resolved fluorescence detector (Rubystar, BMG) using a 337 nm laser for excitation and monitoring emission wavelengths at 665 nm. Within the linear range of the assay, the observed signal at 665 nm was directly related to phosphorylated product and can be used to calculate the IC50 values.
MOPSO buffer contains: 50 mM MOPSO pH 6.5, 10 mM MgCl2, 2 mM MnCl2, 2.5 mM DTT, 0.01% BSA, and 0.1 mM Na3VO4 HEPES buffer contains: 50 mM HEPES pH 7.1, 2.5 mM DTT, 10 mM MgCl2, 2 mM MnCl2, 0.01% BSA, and 0.1 mM Na3VO4 MOPS buffer contains: 20 mM MOPS pH 7.2, 10 mM MgCl2, 5 mM EGTA, 5 mM Beta-phosphoglycerol, 1 mM Na3VO4, 0.01% Triton-X-100 and 1 mM DTT
Biotin-TYR1-peptide sequence: Biotin-(Ahx)-GAEEEIYAAFFA-COOH Biotin-TYR2-peptide sequence: Biotin-(Ahx)-AEEEYFFLFA-amide KinEASE 51 peptides were purchased from Cisbio (cat #62ST0PEB, Bedford, Mass.)
PT66K was purchased from Cisbio (cat #61T66KLB, Bedford, Mass.) EuSTK was purchased from Cisbio (cat #62ST0PEB, Bedford, Mass.) SAXL was purchased from Prozyme (cat #PJ25S, San Leandro, Calif.) Human T-Blasts IL-2 pSTAT5 Cellular Assay

[1] = Syk catalytic domain (aa 356-635), trFRET, 0.001 mM ATP

| Compound | IC50 [1] [nM] | IC50 [nM] |
| --- | --- | --- |
| CC(=O)N[C@@H]1C[C@@H](c2nc(-c3ccc(C(C)(C)O)cc3)c3cnc4[nH]ccc4n23)N(S(=O)(=O)C2CC2)C1 (racemic) [N.1.65] | 1000 to 10000 | – |
| CC(C)(O)c1ccc(-c2nc([C@@H]3CCCC[C@H]3CN)n3c2cnc2[nH]ccc23)cc1 (racemic) [N.1.78] | 100 to 1000 | – |
| COc1ccc2c(c1)c(-c1cc3c(ncc4cnc([C@@H]5CC[C@H](N)C5)n43)[nH]1)cn2C (relative stereo) [T.1.1, cis-3-(7-(5-Methoxy-1-methyl-1H-indol-3-yl)-6H-imidazo[1,5-a]pyrrolo[2,3-e]pyrazin-1-yl)cyclopentanamine diacetate] | < 100 | – |
| CS(=O)(=O)c1cccc(-c2cc3c(ncc4cnc([C@@H]5CC[C@H](N)C5)n43)[nH]2)c1 (relative stereo) [T.1.1.5, (cis)-3-(7-(3-(Methylsulfonyl)phenyl)-6H-imidazo[1,5-a]pyrrolo[2,3-e]pyrazin-1-yl)cyclopentanamine] | 100 to 1000 | – |
| COc1ccc(-c2nc(C)n3c2cnc2[nH]ccc23)c(OC)c1 [AC.1.1] | – | 1000 to 10000 |
| COc1ccc(-c2nc(C)n3c2cnc2[nH]ccc23)c(CO)c1 [AC.1.2] | – | 1000 to 10000 |
| Cc1nc(-c2ccc(CO)nc2)c2cnc3[nH]ccc3n12 [AC.1.3] | – | 100 to 1000 |
| CCCNC(=O)c1cccc(-c2nc(C)n3c2cnc2[nH]ccc23)c1 [AC.1.4] | – | 100 to 1000 |
| Cc1nc(-c2cccc3nccnc23)c2cnc3[nH]ccc3n12 [AC.1.5] | – | > 10000 |
| Cc1nc(-c2ccc(S(C)(=O)=O)cc2)c2cnc3[nH]ccc3n12 [AC.1.6] | – | 100 to 1000 |
| Cc1nc(-c2ccc(C(C)(C)CO)cc2)c2cnc3[nH]ccc3n12 [AC.1.7] | – | < 100 |
| CNS(=O)(=O)c1ccc(-c2nc(C)n3c2cnc2[nH]ccc23)cc1 [AC.1.9] | – | < 100 |
| Cc1nc(-c2ccc(S(=O)(=O)N(C)C)cc2)c2cnc3[nH]ccc3n12 [AC.1.10] | – | 100 to 1000 |
| Cc1nc(-c2ccc(S(=O)(=O)C(C)C)cc2)c2cnc3[nH]ccc3n12 [AC.1.11] | – | 100 to 1000 |
| Cc1nc(-c2ccc(S(=O)(=O)N3CCN(C)CC3)cc2)c2cnc3[nH]ccc3n12 [AC.1.12] | – | 1000 to 10000 |
| Cc1nc(C2=CCN(C(=O)OC(C)(C)C)CC2)c2cnc3[nH]ccc3n12 [AC.1.13] | – | 1000 to 10000 |
| Cc1nc(-c2ccc(OCCN3CCOCC3)cc2)c2cnc3[nH]ccc3n12 [AC.1.14] | – | < 100 |
| COCCOc1ccc(-c2nc(C)n3c2cnc2[nH]ccc23)cc1 [AC.1.15] | – | 100 to 1000 |
| Cc1nc(-c2ccc(OCC(=O)O)cc2)c2cnc3[nH]ccc3n12 [AC.1.16] | – | 100 to 1000 |
| COc1ccc(-c2nc(C)n3c2cnc2[nH]ccc23)c(C)c1 [AC.1.17] | – | > 10000 |
| COc1ccc(-c2nc(C)n3c2cnc2[nH]ccc23)c(F)c1 [AC.1.18] | – | 1000 to 10000 |
| COc1ccc(-c2nc(C)n3c2cnc2[nH]ccc23)c(Cl)c1 [AC.1.19] | – | 1000 to 10000 |

| Compound | IC50 [1] [nM] | IC50 [nM] |
| --- | --- | --- |
| Cc1nc(-c2ccc(C(C)(C)O)c(F)c2)c2cnc3[nH]ccc3n12 [AC.1.20] | – | < 100 |
| COc1ccc(-c2nc(C)n3c2cnc2[nH]ccc23)cn1 [AC.1.21] | – | 100 to 1000 |
| Cc1nc(-c2cccnc2)c2cnc3[nH]ccc3n12 [AC.1.22] | – | 1000 to 10000 |
| COc1ncc(-c2nc(C)n3c2cnc2[nH]ccc23)cn1 [AC.1.23] | – | 1000 to 10000 |
| Cc1nc(-c2ccc(C(C)(C)O)nc2)c2cnc3[nH]ccc3n12 [AC.1.24] | – | 100 to 1000 |
| COc1c(C)cc(-c2nc(C)n3c2cnc2[nH]ccc23)cc1C [AC.1.25] | – | < 100 |
| Cc1nc(-c2ccc3c(c2)CCO3)c2cnc3[nH]ccc3n12 [AC.1.26] | – | 100 to 1000 |
| Cc1cc(-c2nc(C)n3c2cnc2[nH]ccc23)ccc1N1CCOCC1 [AC.1.27] | – | < 100 |
| Cc1nc(-c2cnn(CC(C)(C)O)c2)c2cnc3[nH]ccc3n12 [AC.1.28] | – | 100 to 1000 |
| CCCNC(=O)c1ccc(-c2nc(C)n3c2cnc2[nH]ccc23)cc1 [AC.1.29] | – | < 100 |
| Cc1cc(-c2nc(C)n3c2cnc2[nH]ccc23)ccc1N1CCN(C)CC1 [AC.1.30] | – | < 100 |
| COc1ccc(-c2nc(C)n3c2cnc2[nH]ccc23)s1 [AC.1.31] | – | < 100 |
| CC(=O)c1ccc(-c2nc(C)n3c2cnc2[nH]ccc23)s1 [AC.1.32] | – | 100 to 1000 |
| Cc1nc(-c2ccc(C3(O)COC3)cc2)c2cnc3[nH]ccc3n12 [AC.1.33] | – | 100 to 1000 |
| Cc1nc(-c2ccc(CO)cc2)c2cnc3[nH]ccc3n12 [AC.1.34] | – | 100 to 1000 |
| Cc1nc(-c2ccc(CC(C)(C)O)cc2)c2cnc3[nH]ccc3n12 [AC.1.35] | – | 100 to 1000 |
| Cc1nc(-c2ccc(C3(CO)CC3)cc2)c2cnc3[nH]ccc3n12 [AC.1.36] | – | 100 to 1000 |
| COc1ccc(-c2nc(C)n3c2cnc2[nH]ccc23)cc1C [AC.1.37] | – | 100 to 1000 |
| Cc1nc(-c2ccc(CNS(=O)(=O)C3CC3)cc2)c2cnc3[nH]ccc3n12 [AC.1.38] | – | 100 to 1000 |
| Cc1nc(-c2cccc(S(C)(=O)=O)c2)c2cnc3[nH]ccc3n12 [AC.1.39] | – | 100 to 1000 |
| Cc1nc(-c2ccc(S(=O)(=O)NC3CC3)cc2)c2cnc3[nH]ccc3n12 [AC.1.40] | – | 100 to 1000 |
| COc1ccc(-c2nc(C)n3c2cnc2[nH]ccc23)cc1OC [AC.1.41] | – | < 100 |

| Compound | IC50 [1] [nM] | IC50 [nM] |
| --- | --- | --- |
| COc1ccc(-c2nc(C)n3c2cnc2[nH]ccc23)cc1Cl [AC.1.42] | – | 100 to 1000 |
| COc1cc2c(-c3cc4c(ncc5cnn(C)c54)[nH]3)cn(C)c2cn1 [AC.2.1] | – | < 100 |
| COc1cnc2c(c1)c(-c1cc3c(ncc4cnn(C)c43)[nH]1)cn2C [AC.2.2] | – | < 100 |
| COc1cccc(-c2nc(C3CCCCC3)n3c2cnc2[nH]ccc23)c1 [AC.3.1] | – | 1000 to 10000 |
| Fc1ccc(-c2nc(C3CCCCC3)n3c2cnc2[nH]ccc23)cc1 [AC.3.2] | – | 1000 to 10000 |
| CC(=O)Nc1cccc(-c2nc(C3CCCCC3)n3c2cnc2[nH]ccc23)c1 [AC.3.3] | – | 100 to 1000 |
| CC(=O)c1cccc(-c2nc(C3CCCCC3)n3c2cnc2[nH]ccc23)c1 [AC.3.4] | – | 100 to 1000 |
| CC(=O)Nc1ccc(-c2nc(C3CCCCC3)n3c2cnc2[nH]ccc23)cc1 [AC.3.7] | – | 100 to 1000 |
| Cn1ccc2cc(-c3nc(C4CCCCC4)n4c3cnc3[nH]ccc34)ccc21 [AC.3.8] | – | 100 to 1000 |
| CN1CCN(Cc2ccc(-c3nc(C4CCCCC4)n4c3cnc3[nH]ccc34)cc2)CC1 [AC.3.14] | – | 100 to 1000 |
| NS(=O)(=O)c1ccc(-c2nc(C3CCCCC3)n3c2cnc2[nH]ccc23)cc1 [AC.3.15] | – | 100 to 1000 |
| c1cnc(-c2nc(C3CCCCC3)n3c2cnc2[nH]ccc23)cn1 [AC.3.16] | – | 1000 to 10000 |
| COCCNC(=O)c1ccc(-c2nc(C3CCCCC3)n3c2cnc2[nH]ccc23)cc1 [AC.3.17] | – | 100 to 1000 |
| CS(=O)(=O)NCc1ccc(-c2nc(C3CCCCC3)n3c2cnc2[nH]ccc23)cc1 [AC.3.18] | – | 100 to 1000 |
| CC(=O)NCCc1ccc(-c2nc(C3CCCCC3)n3c2cnc2[nH]ccc23)cc1 [AC.3.19] | – | 100 to 1000 |
| O=S(=O)(NCCO)c1cccc(-c2nc(C3CCCCC3)n3c2cnc2[nH]ccc23)c1 [AC.3.21] | – | 100 to 1000 |
| CN(C)C(=O)c1ccc(-c2nc(C3CCCCC3)n3c2cnc2[nH]ccc23)cc1 [AC.3.22] | – | 100 to 1000 |
| c1cc(-c2nc(C3CCCCC3)n3c2cnc2[nH]ccc23)ccn1 [AC.3.23] | – | 100 to 1000 |
| CN(C)CCNC(=O)c1ccc(-c2nc(C3CCCCC3)n3c2cnc2[nH]ccc23)cc1 [AC.3.26] | – | 100 to 1000 |
| O=C(c1ccc(-c2nc(C3CCCCC3)n3c2cnc2[nH]ccc23)cc1)N1CCOCC1 [AC.3.28] | – | 100 to 1000 |
